Patent US11076595B2, “1-(n,n-disubstituted carbamoyl) 4-(substituted sulfonyl)triazolin-5-one derivative, 4-(n,n-disubstituted carbamoyl) 1-(substituted sulfonyl)triazolin-5-one derivative, and herbicide containing said derivative as active ingredient” (HOKKO CHEMICAL INDUSTRY CO., LTD., priority 2017, dated 2021)

Key:
Assay in all cases: Test Example 11: herbicidal effect test by soil treatment in paddy field
Format in all cases: in vivo
Details in all cases: 120 g/10a active ingredient, 14 days after treatment
[1] = test system: Lindernia pyxidaria
Text: (§1) A Wagner pot having an area of 1/10000 are was filled with paddy field soil and after adding water, a chemical fertilizer (N:P:K=17:17:17) was mixed, followed by puddling. Thereafter, 30 grains of each of Echinochloa crus-galli, broad-leaved weed (Lindernia pyxidaria, Monochoria vaginalis) and Scirpus juncoides seeds were sown to a depth of 0 to 1 cm. Immediately after the sowing, the pot was flooded, and the depth of water was kept at about 3 cm. The pot was subsequently managed in a glass greenhouse. Just after that, an emulsifiable concentrate prepared according to Formulation Example 15 by using the compound shown in Table 9 below was diluted with water, and a predetermined amount of the water-diluted formulation was added dropwise. The application rate of the active ingredient, by conversion, corresponded to 120 g per 10 are.
(§2) This test was performed with two replications per one formulation concentration plot, and 14 days after the formulation treatments, the weed suppression rate (%) was determined according to the following equation (Math. 2). Weed suppression rate (%)=(1−average dry weight (g) of plants in treated plots/average dry weight (g) of plants in untreated plots)×100 [Math. 2]

[2] = test system: Scirpus juncoides
Text: as §1, §2

[3] = test system: Echinochloa crus-galli
Text: as §1, §2

[4] = test system: Monochoria vaginalis
Text: as §1, §2

SMILES	Weed suppression rate (%) Lindemia pyxidaria [1] [%]	Weed suppression rate (%) Scirpus juncoides [2] [%]	Weed suppression rate (%) Echinochloa crus-galli [3] [%]	Weed suppression rate (%) Monochoria vaginalis [4] [%]
CC(C)N(C(=O)n1cnn(S(=O)(=O)CCl)c1=O)c1ccc(C(F)(F)F)cc1F [Compound 11-126]	100	30	100	60
Cc1cc(F)ccc1N(C(=O)n1cnn(S(=O)(=O)c2ccccc2F)c1=O)C(C)C [Compound 11-415]	70	30	80	70
CC(C)N(C(=O)n1cnn(S(=O)(=O)c2cccc(F)c2)c1=O)c1ccc(F)cc1Cl [Compound 11-445]	70	100	100	60
Cc1cc(Cl)ccc1N(C(=O)n1cnn(S(=O)(=O)c2ccc(F)cc2)c1=O)C(C)C [Compound 11-490]	80	90	90	80
Cc1cc(F)ccc1N(C(=O)n1cnn(S(=O)(=O)c2ccccc2Cl)c1=O)C(C)C [Compound 11-525]	90	60	60	90
Cc1cc(Cl)ccc1N(C(=O)n1cnn(S(=O)(=O)c2ccccc2Cl)c1=O)C(C)C [Compound 11-527]	80	90	90	80
CC(C)N(C(=O)n1cnn(S(=O)(=O)c2cccc(Cl)c2)c1=O)c1ccccc1 [Compound 11-539]	90	40	80	40
CC(C)N(C(=O)n1cnn(S(=O)(=O)c2cccc(Cl)c2)c1=O)c1cccc(F)c1F [Compound 11-549]	90	100	80	100
CC(C)N(C(=O)n1cnn(S(=O)(=O)c2cccc(Cl)c2)c1=O)c1ccc(Cl)cn1 [Compound 11-574]	80	50	90	40
CCN(CC)C(=O)n1cnn(S(=O)(=O)c2ccc(Cl)cc2)c1=O [Compound 11-576]	0	0	40	0
CC(C)N(C(=O)n1cnn(S(=O)(=O)c2ccc(Cl)cc2)c1=O)c1ccccc1 [Compound 11-577]	60	0	40	0
CC(C)N(C(=O)n1cnn(S(=O)(=O)c2ccc(Cl)cc2)c1=O)c1ccccc1F [Compound 11-578]	80	90	90	80
CC(C)N(C(=O)n1cnn(S(=O)(=O)c2ccc(Cl)cc2)c1=O)c1c(F)c(F)cc(F)c1F [Compound 11-593]	70	30	80	60
CC(C)N(C(=O)n1cnn(S(=O)(=O)c2ccc(Cl)cc2)c1=O)c1ccc(F)cc1Cl [Compound 11-595]	90	60	90	70
Cc1ccc(S(=O)(=O)n2ncn(C(=O)N(c3ccc(Cl)cc3Br)C(C)C)c2=O)cc1 [Compound 11-649]	70	60	90	60
Cc1ccc(S(=O)(=O)n2ncn(C(=O)N(c3ccc(Cl)cc3C)C(C)C)c2=O)cc1 [Compound 11-652]	80	90	90	80
CC(C)N(C(=O)n1cnn(S(=O)(=O)c2ccc(C(C)(C)C)cc2)c1=O)c1ccc(Br)cc1Cl [Compound 11-693]	60	60	80	60
CC(C)N(C(=O)n1cnn(S(=O)(=O)c2ccc(C(C)(C)C)cc2)c1=O)c1ccc(C(F)(F)F)cc1F [Compound 11-699]	90	30	90	70
CC(C)N(C(=O)n1cnn(S(=O)(=O)c2cccc(C(F)(F)F)c2)c1=O)c1ccc(F)c(F)c1F [Compound 11-726]	90	30	100	30
CC(C)N(C(=O)n1cnn(S(=O)(=O)c2cccc(C(F)(F)F)c2)c1=O)c1c(F)cc(F)cc1F [Compound 11-727]	80	80	90	60
CC(C)N(C(=O)n1cnn(S(=O)(=O)c2ccc(C(F)(F)F)cc2)c1=O)c1ccc(F)cc1F [Compound 11-749]	70	70	60	70
CC(C)N(C(=O)n1cnn(S(=O)(=O)c2c(F)cccc2F)c1=O)c1ccc(F)cc1Cl [Compound 11-780]	100	100	60	60
Cc1ccc(N(C(=O)n2cnn(S(=O)(=O)c3c(F)cccc3F)c2=O)C(C)C)c(F)c1 [Compound 11-787]	80	90	90	80
CC(C)N(C(=O)n1cnn(S(=O)(=O)c2c(F)cccc2F)c1=O)c1ccc(C(F)(F)F)cc1F [Compound 11-790]	90	90	80	30
CC(C)N(C(=O)n1cnn(S(=O)(=O)c2c(F)c(F)c(F)c(F)c2F)c1=O)c1ccc(F)c(F)c1F [Compound 11-814]	90	30	70	70
Cc1cc(C)c(S(=O)(=O)n2ncn(C(=O)N(c3c(F)cccc3F)C(C)C)c2=O)c(C)c1 [Compound 11-865]	70	70	80	70
Cc1cc(C)c(S(=O)(=O)n2ncn(C(=O)N(c3ccc(Cl)cc3C)C(C)C)c2=O)c(C)c1 [Compound 11-878]	80	90	90	80
